Source: ChEMBL document CHEMBL1201862, “PubChem BioAssay data set” (2004)
Activity calls are given as the source filed them.

Columns and labels:
HEK293 [1] = test: optical interference in Abeta FP readout, dose response, artefact control for IDE activator project, biochemical, fluorescence polarization (AID 588442); format: functional, cell-based; settings: Homo sapiens
Insulin-degrading enzyme [2] = target: T1, Insulin-degrading enzyme (Homo sapiens, UniProt P14735); test: activators of recombinant IDE enzyme, dose response, counter-screen for IDE activator project, biochemical, fluorescence polarization (AID 588681)
T1 sequence (P14735 whole entry): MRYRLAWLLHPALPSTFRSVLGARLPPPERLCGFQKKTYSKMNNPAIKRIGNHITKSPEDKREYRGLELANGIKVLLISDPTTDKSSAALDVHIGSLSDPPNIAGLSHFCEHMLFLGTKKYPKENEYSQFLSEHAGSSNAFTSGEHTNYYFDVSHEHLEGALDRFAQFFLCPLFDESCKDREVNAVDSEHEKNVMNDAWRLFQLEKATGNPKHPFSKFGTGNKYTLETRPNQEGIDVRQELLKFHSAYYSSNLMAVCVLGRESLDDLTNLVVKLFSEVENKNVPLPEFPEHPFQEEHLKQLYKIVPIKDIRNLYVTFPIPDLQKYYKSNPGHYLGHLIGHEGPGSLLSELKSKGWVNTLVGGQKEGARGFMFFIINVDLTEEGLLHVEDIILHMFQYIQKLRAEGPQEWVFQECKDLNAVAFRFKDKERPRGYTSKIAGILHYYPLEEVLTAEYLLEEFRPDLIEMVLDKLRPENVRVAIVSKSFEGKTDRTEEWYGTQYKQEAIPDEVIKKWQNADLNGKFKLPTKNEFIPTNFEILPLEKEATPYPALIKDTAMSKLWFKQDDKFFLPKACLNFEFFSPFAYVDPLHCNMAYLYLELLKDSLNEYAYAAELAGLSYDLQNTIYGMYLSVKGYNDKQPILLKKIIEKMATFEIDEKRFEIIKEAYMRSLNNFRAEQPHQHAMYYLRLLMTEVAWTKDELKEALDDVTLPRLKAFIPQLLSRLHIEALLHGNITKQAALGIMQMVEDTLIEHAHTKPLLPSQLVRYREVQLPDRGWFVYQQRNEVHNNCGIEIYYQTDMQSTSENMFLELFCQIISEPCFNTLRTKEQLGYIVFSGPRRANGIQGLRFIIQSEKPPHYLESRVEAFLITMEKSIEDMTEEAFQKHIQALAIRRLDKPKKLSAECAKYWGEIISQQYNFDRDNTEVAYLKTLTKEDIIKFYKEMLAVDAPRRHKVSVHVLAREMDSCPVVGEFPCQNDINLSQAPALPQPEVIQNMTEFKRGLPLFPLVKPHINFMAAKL

HEK293 [3] = test: HEK cell cytotoxicity by LDH release, dose response, cytotoxicity control for IDE activator project, fluorescence, HEK cells (AID 588440); format: functional, cell-based; settings: Homo sapiens;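 note: cytotoxicity by LDH release measuring loss of membrane integrity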
Insulin-degrading enzyme [4] = target: T1, Insulin-degrading enzyme; test: activators of endogenous IDE in HEK cells, dose response, cell-based, fluorescence polarization (AID 588439); format: functional
Caspase-3 = target: T2, Caspase-3 (Homo sapiens, UniProt P42574); format: functional;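 note: Dose-response selectivity test against caspase-3 for candidate inhibitors of sentrin-specific proteases (SENPs)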
T2 sequence (P42574 whole entry): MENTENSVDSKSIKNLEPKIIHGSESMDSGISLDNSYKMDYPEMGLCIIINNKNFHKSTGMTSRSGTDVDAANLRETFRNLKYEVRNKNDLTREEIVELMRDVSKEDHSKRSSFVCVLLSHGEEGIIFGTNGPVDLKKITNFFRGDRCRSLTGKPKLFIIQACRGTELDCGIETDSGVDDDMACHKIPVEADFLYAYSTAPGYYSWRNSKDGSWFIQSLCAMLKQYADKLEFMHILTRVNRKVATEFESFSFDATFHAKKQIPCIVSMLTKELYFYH

[5] = target: T3, Hepatocyte nuclear factor 4-alpha (Homo sapiens, UniProt P41235); format: functional, cell-based;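 note: biochemical luminescence-based dose-response counterscreen measuring inhibition of HNF4 dimerization, run alongside a screen for blockers of ABHD5–perilipin-5 interaction; split luciferase complementation of HNF4 fusion proteins in cell lysate measuring dimerization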
T3 sequence (P41235 whole entry): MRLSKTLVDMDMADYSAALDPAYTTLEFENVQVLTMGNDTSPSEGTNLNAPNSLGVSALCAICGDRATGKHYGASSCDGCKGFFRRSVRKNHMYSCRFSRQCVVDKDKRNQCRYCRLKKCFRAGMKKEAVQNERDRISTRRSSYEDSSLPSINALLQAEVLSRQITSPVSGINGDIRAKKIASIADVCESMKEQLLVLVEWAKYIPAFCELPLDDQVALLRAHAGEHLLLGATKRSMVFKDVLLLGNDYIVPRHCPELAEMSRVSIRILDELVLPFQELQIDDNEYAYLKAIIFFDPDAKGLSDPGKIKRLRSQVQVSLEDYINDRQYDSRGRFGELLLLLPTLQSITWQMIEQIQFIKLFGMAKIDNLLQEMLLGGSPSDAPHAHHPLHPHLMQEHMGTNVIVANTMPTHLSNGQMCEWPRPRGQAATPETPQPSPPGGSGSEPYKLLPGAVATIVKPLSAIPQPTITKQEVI

[6] = Luminescence Cell-Based Dose Retest to Confirm Inhibitors of Cancer Stem Cells. [Related pubchem assays (depositor defined):AID2717, AID2721]; format: functional; settings: Homo sapiens
[7] = target: T4, Sentrin-specific protease 7 (Homo sapiens, UniProt Q9BQF6); format: functional;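 note: Luminescence-based dose-response confirmation of ultra-high-throughput screening hits, measuring inhibition of SENP7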
T4 sequence (Q9BQF6 whole entry): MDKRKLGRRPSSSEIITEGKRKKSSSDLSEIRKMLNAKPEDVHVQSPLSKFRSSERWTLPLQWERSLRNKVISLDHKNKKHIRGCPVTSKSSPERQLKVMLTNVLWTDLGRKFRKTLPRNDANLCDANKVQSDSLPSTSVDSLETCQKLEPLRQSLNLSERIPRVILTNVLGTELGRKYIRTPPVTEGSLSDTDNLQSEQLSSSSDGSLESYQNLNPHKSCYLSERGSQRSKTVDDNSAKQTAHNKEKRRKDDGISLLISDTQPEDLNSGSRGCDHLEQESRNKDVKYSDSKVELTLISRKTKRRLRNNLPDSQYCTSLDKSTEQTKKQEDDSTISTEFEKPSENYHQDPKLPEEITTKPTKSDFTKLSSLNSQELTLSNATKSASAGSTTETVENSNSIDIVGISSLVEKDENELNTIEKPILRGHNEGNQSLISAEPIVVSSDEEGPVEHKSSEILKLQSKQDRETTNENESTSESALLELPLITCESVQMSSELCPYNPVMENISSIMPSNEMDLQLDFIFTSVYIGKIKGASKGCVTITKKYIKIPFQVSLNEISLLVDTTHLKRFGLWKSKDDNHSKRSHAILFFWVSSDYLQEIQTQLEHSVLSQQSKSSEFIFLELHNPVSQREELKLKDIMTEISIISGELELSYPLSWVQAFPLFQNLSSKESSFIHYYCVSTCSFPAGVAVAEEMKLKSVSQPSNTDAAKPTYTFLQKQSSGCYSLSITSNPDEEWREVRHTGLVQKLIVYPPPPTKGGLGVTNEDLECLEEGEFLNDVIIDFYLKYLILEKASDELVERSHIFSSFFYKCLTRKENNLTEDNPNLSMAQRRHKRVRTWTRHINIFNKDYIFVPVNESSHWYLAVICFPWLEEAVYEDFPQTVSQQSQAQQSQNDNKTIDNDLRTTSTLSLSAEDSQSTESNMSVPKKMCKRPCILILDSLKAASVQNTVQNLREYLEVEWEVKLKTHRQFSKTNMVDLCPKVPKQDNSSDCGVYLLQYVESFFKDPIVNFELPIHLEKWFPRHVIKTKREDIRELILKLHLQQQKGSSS

[8] = target: T5, Sentrin-specific protease 6 (Homo sapiens, UniProt Q9GZR1); format: functional;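 note: Luminescence-based dose-response confirmatory assay of SENP6 inhibition, following up an ultra-high-throughput screen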
T5 sequence (Q9GZR1 whole entry): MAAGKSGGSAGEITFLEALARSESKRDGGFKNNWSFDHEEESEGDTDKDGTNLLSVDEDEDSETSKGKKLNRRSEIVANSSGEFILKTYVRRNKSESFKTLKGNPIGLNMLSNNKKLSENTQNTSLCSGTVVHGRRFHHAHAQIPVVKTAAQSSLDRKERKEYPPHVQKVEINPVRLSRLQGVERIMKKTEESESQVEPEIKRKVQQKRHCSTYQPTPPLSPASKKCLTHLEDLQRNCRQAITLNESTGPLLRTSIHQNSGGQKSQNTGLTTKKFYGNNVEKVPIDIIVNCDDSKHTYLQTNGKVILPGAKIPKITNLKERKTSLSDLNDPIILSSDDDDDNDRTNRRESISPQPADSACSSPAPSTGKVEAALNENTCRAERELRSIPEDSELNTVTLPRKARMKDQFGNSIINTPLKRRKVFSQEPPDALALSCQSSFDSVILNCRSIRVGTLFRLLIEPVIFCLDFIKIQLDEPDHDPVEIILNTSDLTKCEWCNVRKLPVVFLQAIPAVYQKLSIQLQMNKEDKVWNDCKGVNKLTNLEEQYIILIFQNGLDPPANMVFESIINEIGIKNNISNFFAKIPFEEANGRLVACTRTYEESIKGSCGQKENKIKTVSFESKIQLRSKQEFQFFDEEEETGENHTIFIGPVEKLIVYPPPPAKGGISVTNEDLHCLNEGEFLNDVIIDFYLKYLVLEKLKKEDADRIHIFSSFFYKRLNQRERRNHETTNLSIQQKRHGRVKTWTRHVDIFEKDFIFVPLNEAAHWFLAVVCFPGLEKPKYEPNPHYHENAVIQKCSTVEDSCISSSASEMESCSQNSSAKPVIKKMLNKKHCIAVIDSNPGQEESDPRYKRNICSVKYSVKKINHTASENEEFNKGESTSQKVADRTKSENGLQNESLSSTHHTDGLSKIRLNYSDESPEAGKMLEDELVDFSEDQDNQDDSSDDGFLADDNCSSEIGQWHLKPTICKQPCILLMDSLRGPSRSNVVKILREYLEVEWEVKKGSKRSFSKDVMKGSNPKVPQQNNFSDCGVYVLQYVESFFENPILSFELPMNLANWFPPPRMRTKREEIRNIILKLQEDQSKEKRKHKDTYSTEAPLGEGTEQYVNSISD

[9] = target: T6, Sentrin-specific protease 8 (Homo sapiens, UniProt Q96LD8); format: functional;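 note: luminescence read-out of SENP8 inhibition, dose-response confirmation following an ultra-high-throughput screen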
T6 sequence (Q96LD8 whole entry): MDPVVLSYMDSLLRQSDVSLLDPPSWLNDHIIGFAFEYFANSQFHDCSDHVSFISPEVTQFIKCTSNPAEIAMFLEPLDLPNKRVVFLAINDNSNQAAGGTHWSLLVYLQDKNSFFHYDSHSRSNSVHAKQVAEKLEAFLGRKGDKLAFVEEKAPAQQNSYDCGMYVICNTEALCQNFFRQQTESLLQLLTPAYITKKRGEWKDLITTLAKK

Genome polyprotein = Genome polyprotein (dengue virus type 2, UniProt P29990); test: Dengue-2 NS5 methyltransferase inhibitors, primary screen, biochemical, confirmation dose response (AID 588689); format: functional
Vero = Vero cell cytotoxicity, cytotoxicity control for flavivirus capping enzyme inhibitors (AID 588742); format: functional; settings: Chlorocebus sabaeus
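Throughout, for AC50: cells exposed to compound for roughly 70 hours or longer before luminescence read.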

Sequence of Genome polyprotein (P29990 2492-3391 limits assumed): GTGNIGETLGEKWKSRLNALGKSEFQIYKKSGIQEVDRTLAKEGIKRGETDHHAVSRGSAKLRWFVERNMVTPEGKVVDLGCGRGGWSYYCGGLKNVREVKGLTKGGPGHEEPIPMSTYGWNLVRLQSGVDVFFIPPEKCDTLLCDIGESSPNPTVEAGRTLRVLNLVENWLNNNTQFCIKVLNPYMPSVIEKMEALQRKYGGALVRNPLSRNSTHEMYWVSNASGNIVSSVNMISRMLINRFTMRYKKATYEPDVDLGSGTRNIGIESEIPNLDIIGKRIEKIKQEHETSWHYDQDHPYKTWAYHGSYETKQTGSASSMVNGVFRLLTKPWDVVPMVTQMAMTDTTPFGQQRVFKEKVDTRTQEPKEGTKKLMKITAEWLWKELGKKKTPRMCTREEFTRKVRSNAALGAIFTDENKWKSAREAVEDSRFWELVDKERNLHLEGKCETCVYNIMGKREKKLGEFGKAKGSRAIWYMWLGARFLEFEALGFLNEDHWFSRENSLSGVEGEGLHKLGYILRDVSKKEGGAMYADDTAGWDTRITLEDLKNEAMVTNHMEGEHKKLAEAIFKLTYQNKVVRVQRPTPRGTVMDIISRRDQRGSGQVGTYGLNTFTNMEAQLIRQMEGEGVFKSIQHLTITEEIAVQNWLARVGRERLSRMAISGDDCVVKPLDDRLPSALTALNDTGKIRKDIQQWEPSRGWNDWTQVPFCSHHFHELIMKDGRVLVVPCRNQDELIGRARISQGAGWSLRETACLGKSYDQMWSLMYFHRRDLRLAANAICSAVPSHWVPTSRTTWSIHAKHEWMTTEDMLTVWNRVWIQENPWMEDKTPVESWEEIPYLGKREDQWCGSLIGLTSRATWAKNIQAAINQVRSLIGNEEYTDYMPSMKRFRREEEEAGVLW

Row | SMILES | EC50 (HEK293 [1]) | EC50 (Insulin-degrading enzyme [2]) | IC50 (HEK293 [3]) | EC50 (Insulin-degrading enzyme [4]) | IC50 (Caspase-3) | IC50 [5] | AC50 [6] | IC50 [7] | IC50 [8] | IC50 [9] | IC50 (Genome polyprotein) | CC50 (Vero)
1 | OC(CNC1CCCCC1)C(F)(F)F (configuration not stated) | > 55.9 µM (inactive) | > 54.7 µM (inactive) | > 89.1 µM (inactive) | > 54.7 µM (inactive) |  |  |  |  |  |  |  | 
2 | COc1ccc(NC(=O)c2cc3ccccc3cc2O)cc1 |  |  |  |  | 20.7 µM (active) | 10 µM (inactive) | 6.04 µM (active) | 5.51 µM (active) | 72.6 µM (active) | > 100 µM (inactive) | > 100 µM (active) | 34.6 µM (active)
3 | O=C(NCc1ccccc1)C(c1ccccc1)n1c(=O)c(-c2ccco2)nc2ccccc21 (configuration not stated) |  |  |  |  |  | 2.93 µM (active) |  |  |  |  |  | 
4 | CCN(c1ccccc1)S(=O)(=O)c1ccc(N2CCN(c3ccc(OC)cc3)CC2)nc1 | > 55.9 µM (inactive) | > 54.7 µM (inactive) | > 89.2 µM (inactive) | > 54.7 µM (inactive) |  |  |  |  |  |  |  | 
